Data from the supplement of paper PMC10307832.

Legend:
Assay in all cases: relative viability (nuclei count vs DMSO), 5 days (fraction); higher = more cells survive
[1] = compound: CCC1=CN=CN=C1N2CCN(CC2)CC3=NC4=C(N3)C=C(C=C4)C(F)(F)F + CC(C)C[C@H](NC(=O)[C@H](Cc1ccccc1)NC(=O)c1cnccn1)B(O)O [Bortezomib] (partner 0.002 µM)
In short: (§1)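 Relative viability was taken as the ratio of nuclei in treated wells to nuclei in vehicle wells. Lung cancer cell lines in 1536-well plates received compounds by pin tool one day after seeding, either one drug alone or a fixed anchor-drug dose plus five library-drug doses (not always all listed) in √10 steps. Nuclei were counted on 4× images after 5 days of treatment, and values are medians of duplicate plates.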

[2] = compound: CCn1c(-c2nonc2N)nc2cnc(Oc3cccc(NC(=O)c4ccc(OCCN5CCOCC5)cc4)c3)cc21 + Nc1ncn([C@H]2C[C@H](O)[C@@H](CO)O2)c(=O)n1 [Decitabine] (partner 2 µM)
In short: as §1

[3] = compound: CCC1=CN=CN=C1N2CCN(CC2)CC3=NC4=C(N3)C=C(C=C4)C(F)(F)F + Cc1cc(Nc2cc(N3CCN(C)CC3)nc(Sc3ccc(NC(=O)C4CC4)cc3)n2)n[nH]1 [Tozasertib] (partner 0.1 µM)
In short: as §1

[4] = compound: CCn1c(-c2nonc2N)nc2cnc(Oc3cccc(NC(=O)c4ccc(OCCN5CCOCC5)cc4)c3)cc21 + N=C(N)NC(=N)NCCc1ccccc1 [Phenformin] (partner 250 µM)
In short: as §1

Row | Cell Line | relative viability ([1]; first compound 0.04 µM) | relative viability ([1]; first compound 0.1265 µM) | relative viability ([1]; first compound 0.4 µM) | relative viability ([1]; first compound 1.265 µM) | relative viability ([1]; first compound 4 µM) | relative viability ([2]; first compound 0.04 µM) | relative viability ([2]; first compound 0.1265 µM) | relative viability ([2]; first compound 0.4 µM) | relative viability ([2]; first compound 1.265 µM) | relative viability ([2]; first compound 4 µM) | relative viability ([3]; first compound 0.04 µM) | relative viability ([3]; first compound 0.1265 µM) | relative viability ([3]; first compound 0.4 µM) | relative viability ([3]; first compound 1.265 µM) | relative viability ([3]; first compound 4 µM) | relative viability ([4]; first compound 0.04 µM) | relative viability ([4]; first compound 0.1265 µM) | relative viability ([4]; first compound 0.4 µM) | relative viability ([4]; first compound 1.265 µM) | relative viability ([4]; first compound 4 µM)
1 | 201T | 1.09 | 1.06 | 1.04 | 1.09 | 1.14 | 0.825 | 0.834 | 0.823 | 0.86 | 0.827 | 0.923 | 0.936 | 0.9 | 0.846 | 0.919 | 0.471 | 0.44 | 0.342 | 0.368 | 0.396
2 | A549 | – | – | – | – | – | 0.219 | 0.304 | 0.272 | – | 0.108 | – | – | – | – | – | 0.303 | 0.151 | 0.0713 | 0.0328 | 0.0406
3 | A-427 | 0.926 | 0.896 | 0.936 | 0.878 | 0.989 | 0.542 | 0.517 | 0.475 | 0.278 | 0.291 | 0.209 | 0.218 | 0.21 | 0.174 | 0.177 | 0.471 | 0.377 | 0.227 | 0.167 | 0.114
4 | ABC-1 | 0.315 | 0.314 | 0.312 | 0.402 | 0.37 | 1.13 | 1.07 | 1.21 | 0.507 | 0.672 | 0.176 | 0.172 | 0.172 | 0.152 | 0.196 | 0.23 | 0.266 | 0.209 | 0.277 | 0.217
5 | BEN | 0.646 | 0.656 | 0.708 | 0.621 | 0.49 | 0.734 | 0.495 | 0.451 | 0.373 | 0.489 | 0.462 | 0.528 | 0.559 | 0.433 | 0.477 | 0.29 | 0.275 | 0.21 | 0.235 | 0.228
6 | CAL-12T | – | 0.997 | 0.888 | 1.06 | 1.07 | – | – | – | – | – | 0.367 | 0.294 | 0.328 | 0.429 | 0.289 | 0.686 | 0.596 | 0.48 | 0.418 | 0.388
7 | COR-L23 | 0.988 | 0.91 | 0.964 | 0.956 | 0.957 | 0.469 | 0.401 | 0.215 | 0.186 | 0.166 | 0.219 | 0.207 | 0.201 | 0.157 | 0.183 | 0.451 | 0.285 | 0.185 | 0.155 | 0.13
8 | COR-L 105 | 0.861 | 0.913 | 0.737 | 0.475 | 0.836 | 0.669 | 0.512 | 0.596 | 0.432 | 0.377 | 0.374 | 0.34 | 0.327 | 0.395 | 0.379 | 0.523 | 0.416 | 0.389 | 0.31 | 0.271
9 | Calu-6 | 0.969 | 0.924 | 0.871 | 0.884 | 0.829 | – | – | – | – | – | – | – | – | – | – | – | – | – | – | –
10 | ChaGo-K-1 | – | 0.97 | 0.964 | 1.09 | 0.985 | 0.582 | 0.423 | 0.525 | 0.515 | 0.526 | 0.206 | 0.256 | 0.233 | 0.195 | 0.224 | 0.599 | 0.413 | 0.306 | 0.351 | 0.398
